Measurements as given in patent publication US10919916B2, “Boron-containing small molecules” (Bill & Melinda Gates Foundation, priority 2016, dated 2021).
Converted amounts (≈) assume the structure as drawn.

Experiments:
Assay type in all cases: cell-based
[1] = system: Staphylococcus aureus, MRSA (ATCC 33591); experiment: Antibacterial MIC assay (microbroth dilution, CLSI); conditions: microbroth dilution, cation-adjusted Mueller-Hinton broth, 35° C. for 16-20 hours, read-out: MIC Staphylococcus aureus, MRSA (ATCC 33591)
Method in brief: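 Compound 2-fold dilution series tested against 5×10^5 CFU/mL bacteria prepared from 0.5 McFarland saline suspensions of overnight colonies. Medium was cation-adjusted Mueller-Hinton broth, supplemented with 3% lysed horse blood for the fastidious pneumococcus. Protocol followed CLSI M07-A10 and M100-S25.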

[2] = system: Streptococcus pneumoniae (ATCC 49619); experiment: as above; conditions: ATCC49619, microbroth dilution, 3% lysed horse blood, 35° C. for 16-20 hours, read-out: MIC Streptococcus pneumoniae (ATCC 49619)
Method in brief: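 S. pneumoniae at 5×10^5 CFU/mL (from 0.5 McFarland saline suspension) was tested against 2-fold serial compound dilutions in cation-adjusted Mueller-Hinton broth plus 3% lysed horse blood, per CLSI M07-A10/M100-S25 microdilution guidelines.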

[3] = system: Wolbachia pipientis in C6/36 cell line; experiment: Anti-Wolbachia high-content assay; conditions: C6/36 (wAlbB) cells, 7 days at 26° C., 50% reduction of Wolbachia, read-out: EC50 Wolbachia pipientis in C6/36 cell line
Method in brief: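 Wolbachia-infected C6/36 cells stained 15 minutes, then medium replaced and five fields per well imaged confocally at 60× with fluorescein filters. Each intact cell scored on cytoplasmic texture complexity.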

SMILES | MIC [1] [µg/mL] | MIC [2] [µg/mL] | EC50 [3] [nM]
C=C[C@]1(C)C[C@@H](OC(=O)COc2ccc3c(c2)B(O)OC3CC(=O)O)[C@]2(C)[C@H](C)CC[C@]3(CCC(=O)[C@H]32)[C@@H](C)[C@@H]1O (stereo partly drawn) [Compound 25, 2-(1-hydroxy-6-(2-(((3aR,4R,5R,7S,8S,9R,9aS,12R)-8-hydroxy-4,7,9,12-tetramethyl-3-oxo-7-vinyldecahydro-4,9a-propanocyclopenta[8]annulen-5-yl)oxy)-2-oxoethoxy)-1,3-dihydrobenzo[c][1,2]oxaborol-3-yl)acetic acid] | 0.5 to 2 (≈ 0.88 to 3.52 µM) | 0.5 to 2 (≈ 0.88 to 3.52 µM) | > 1000
C=C[C@]1(C)C[C@@H](OC(=O)COc2cc3c(cc2F)COB3O)[C@]2(C)[C@H](C)CC[C@]3(C[C@H](F)C(=O)[C@H]32)[C@@H](C)[C@@H]1O [Compound 40, (2S,3aR,4R,5R,7S,8S,9R,9aS,12R)-2-fluoro-8-hydroxy-4,7,9,12-tetramethyl-3-oxo-7-vinyldecahydro-4,9a-propanocyclopenta[8]annulen-5-yl 2-((5-fluoro-1-hydroxy-1,3-dihydrobenzo[c][1,2]oxaborol-6-yl)oxy)acetate] | < 0.25 | 0.5 to 2 (≈ 0.915 to 3.66 µM) | 18
C=C[C@]1(C)C[C@@H](OC(=O)COc2cc3c(c(C4CCN(C(=O)OC(C)(C)C)CC4)c2)COB3O)[C@]2(C)[C@H](C)CC[C@]3(CCC(=O)[C@H]32)[C@@H](C)[C@@H]1O [Compound 17, tert-butyl 4-(1-hydroxy-6-(2-(((3aR,4R,5R,7S,8S,9R,9aS,12R)-8-hydroxy-4,7,9,12-tetramethyl-3-oxo-7-vinyldecahydro-4,9a-propanocyclopenta[8]annulen-5-yl)oxy)-2-oxoethoxy)-1,3-dihydrobenzo[c][1,2]oxaborol-4-yl)piperidine-1-carboxylate] | 0.5 to 2 (≈ 0.721 to 2.88 µM) | < 0.25 | 623
C=C[C@]1(C)C[C@@H](OC(=O)COc2ccc3c(c2F)B(O)OC3CNC(=O)OC(C)(C)C)[C@]2(C)[C@H](C)CC[C@]3(CCC(=O)[C@H]32)[C@@H](C)[C@@H]1O (stereo partly drawn) [Compound 28, (3aR,4R,5R,7S,8S,9R,9aS,12R)-8-hydroxy-4,7,9,12-tetramethyl-3-oxo-7-vinyldecahydro-4,9a-propanocyclopenta[8]annulen-5-yl 2-((3-(((tert-butoxycarbonyl)amino)methyl)-7-fluoro-1-hydroxy-1,3-dihydrobenzo[c][1,2]oxaborol-6-yl)oxy)acetate] | 0.5 to 2 (≈ 0.76 to 3.04 µM) | 0.5 to 2 (≈ 0.76 to 3.04 µM) | > 1000
